16 molecules from PubChem BioAssay AID200 (DTP/NCI, 2004) can be followed below.

This experiment has as its system B6C3F1 mice, B16 melanoma ip, median survival T/C. The experiment can be described thus: NCI In Vivo Anticancer Drug Screen. Data for tumor model B16 Melanoma (intraperitoneal) in B6C3F1 mice. The settings on record: endpoint: median survival time, higher = longer survival. A digest of the protocol:
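Readout: survival or tumor size in treated mice relative to vehicle controls (T/C). Model uses transplantable tumors grown in mice.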

The mark [1] stands for this setting: dose: 50.0 mg/kg/injection, schedule: Q01DX009 (ip), vehicle: saline with Tween-80.
[2] abbreviates: dose: 100.0 mg/kg/injection, schedule: Q01DX009 (ip), vehicle: saline with Tween-80.
[3] abbreviates: dose: 12.5 mg/kg/injection, schedule: Q01DX009 (ip), vehicle: saline.
[4] abbreviates: dose: 25.0 mg/kg/injection, schedule: Q01DX009 (ip), vehicle: saline.
Where [5] appears, read: dose: 50.0 mg/kg/injection, schedule: Q01DX009 (ip), vehicle: saline.
Setting [6] is: dose: 25.0 mg/kg/injection, schedule: Q01DX009 (ip), vehicle: saline with Tween-80.

“And” between values parts separate entries of the source, which are not always exact repeats. Equal entries are not always repeated. Toxic doses and inconclusive results are not listed.

Take `C1CN1P1(N2CC2)=NP(N2CC2)(N2CC2)=NP(N2CC2)(N2CC2)=N1`: the T/C was 116 % of control and 94 % of control (dose: 1.0 mg/kg/injection, schedule: Q01DX009 (ip), vehicle: Klucel (hydroxypropylcellulose) (HPC)); 113 % of control and 114 % of control (dose: 1.0 mg/kg/injection, schedule: Q02DX009 (ip), vehicle: Klucel (hydroxypropylcellulose) (HPC)); 119 % of control (dose: 2.0 mg/kg/injection, schedule: Q01DX009 (ip), vehicle: Klucel (hydroxypropylcellulose) (HPC)); 114 % of control and 106 % of control (dose: 2.0 mg/kg/injection, schedule: Q02DX009 (ip), vehicle: Klucel (hydroxypropylcellulose) (HPC)); 120 % of control and 122 % of control (dose: 4.0 mg/kg/injection, schedule: Q02DX009 (ip), vehicle: Klucel (hydroxypropylcellulose) (HPC)); 180 % of control (dose: 8.0 mg/kg/injection, schedule: Q01DX009 (ip), vehicle: Klucel (hydroxypropylcellulose) (HPC)). For the same molecule, the T/C (dose: 8.0 mg/kg/injection, schedule: Q02DX009 (ip), vehicle: Klucel (hydroxypropylcellulose) (HPC)) is 117 % of control and the T/C (dose: 16.0 mg/kg/injection, schedule: Q02DX009 (ip), vehicle: Klucel (hydroxypropylcellulose) (HPC)) is 195 % of control.
In the case of `Nc1nc(F)nc2c1ncn2C1OC(COP(=O)(O)O)C(O)C1O` (centres undefined), the T/C by setting is: (dose: 12.5 mg/kg/injection, schedule: Q01DX009 (ip), vehicle: suspension in saline) 90 % of control; (dose: 25.0 mg/kg/injection, schedule: Q01DX009 (ip), vehicle: suspension in saline) 97 % of control; (dose: 50.0 mg/kg/injection, schedule: Q01DX009 (ip), vehicle: suspension in saline) 93 % of control; (dose: 100.0 mg/kg/injection, schedule: Q01DX009 (ip), vehicle: suspension in saline) 105 % of control.
With `CC(C)(C)OC(=O)NCC(=O)ON1C(=O)CCC1=O`, the T/C runs as follows: under setting [1], 100 % of control; under setting [2], 91 % of control.
Taken in the same sequence, the figures for `CCc1cccc(CC)c1-n1c(C)ccc1-c1ccccc1` were 100 % of control and 107 % of control.
For `OCC12COCN1COC2`, the T/C was 98 % of control under setting [3]; 113 % of control under setting [4]; 113 % of control and 101 % of control under setting [5]; 110 % of control and 100 % of control (dose: 100.0 mg/kg/injection, schedule: Q01DX009 (ip), vehicle: saline); 108 % of control and 110 % of control (dose: 200.0 mg/kg/injection, schedule: Q01DX009 (ip), vehicle: saline); 121 % of control and 105 % of control (dose: 400.0 mg/kg/injection, schedule: Q01DX009 (ip), vehicle: saline).
As to `CN1CCCN(C(c2ccccc2)c2ccc(Br)cc2)CC1` (centres undefined), the T/C by setting is: (dose: 18.0 mg/kg/injection, schedule: Q01DX009 (ip), vehicle: saline) 98 % of control; (dose: 36.0 mg/kg/injection, schedule: Q01DX009 (ip), vehicle: saline) 92 % of control.
Turning to `ClCc1ccc2ccccc2n1`, the T/C is, setting by setting: under setting [6], 107 % of control; under setting [1], 102 % of control.
In the case of `CCCC1C/C=C/C=C/C=C/C=C/C(OC2OC(C)C(O)C(N)C2O)CC(O)C(C(=O)O)C(O)CC(=O)CC(O)CCCC(=O)CC(O)C(CC)C(=O)O1` (centres undefined), the T/C runs as follows: (dose: 2.5 mg/kg/injection, schedule: Q01DX009 (ip), vehicle: Klucel (hydroxypropylcellulose) (HPC)) 114 % of control; (dose: 5.0 mg/kg/injection, schedule: Q01DX009 (ip), vehicle: Klucel (hydroxypropylcellulose) (HPC)) 106 % of control; (dose: 10.0 mg/kg/injection, schedule: Q01DX009 (ip), vehicle: Klucel (hydroxypropylcellulose) (HPC)) 104 % of control; (dose: 20.0 mg/kg/injection, schedule: Q01DX009 (ip), vehicle: Klucel (hydroxypropylcellulose) (HPC)) 89 % of control.
For `COc1cc2cc(c1Cl)N(C)C(=O)C[C@H](OC(=O)[C@H](C)N(C)C(C)=O)[C@]1(C)O[C@H]1[C@H](C)[C@@H]1C[C@@](O)(NC(=O)O1)[C@H](OC)C=C/C=C(\C)C2`, the T/C by setting is: (dose: 1.0 micrograms/kg/injection, schedule: Q01DX009 (ip), vehicle: saline + alcohol) 121 % of control; (dose: 2.0 micrograms/kg/injection, schedule: Q01DX005 (iv), vehicle: saline + alcohol) 107 % of control; (dose: 4.0 micrograms/kg/injection, schedule: Q01DX005 (iv), vehicle: saline + alcohol) 106 % of control; (dose: 8.0 micrograms/kg/injection, schedule: Q01DX005 (iv), vehicle: saline + alcohol) 100 % of control and 106 % of control; (dose: 64.0 micrograms/kg/injection, schedule: Q01DX005 (iv), vehicle: saline + alcohol) 112 % of control and 113 % of control; (dose: 128.0 micrograms/kg/injection, schedule: Q01DX005 (iv), vehicle: saline + alcohol) 120 % of control. Besides, under “dose: 256.0 micrograms/kg/injection, schedule: Q01DX005 (iv), vehicle: saline + alcohol”, the T/C was 152 % of control.
For `O=C1C(CO)=C[C@@H](O)[C@H]2O[C@@H]12`, the T/C was 88 % of control (dose: 3.12 mg/kg/injection, schedule: Q01DX009 (ip), vehicle: saline); 98 % of control (dose: 6.25 mg/kg/injection, schedule: Q01DX009 (ip), vehicle: saline); 100 % of control under setting [3]; 96 % of control under setting [4]; 106 % of control under setting [5].
Turning to `CCC/C=C/C=C/C(=O)OC1/C(=C/C(=O)OC)CC2CC(C(C)O)OC(=O)CC(O)CC3CC(OC(C)=O)C(C)(C)C(O)(CC4C/C(=C/C(=O)OC)CC(/C=C/C(C)(C)C1(O)O2)O4)O3` (centres undefined), the T/C by setting is: (dose: 4.69 micrograms/kg/injection, schedule: Q01DX009 (ip), vehicle: saline + alcohol) 94 % of control; (dose: 9.38 micrograms/kg/injection, schedule: Q01DX009 (ip), vehicle: saline + alcohol) 100 % of control; (dose: 18.75 micrograms/kg/injection, schedule: Q01DX009 (ip), vehicle: saline + alcohol) 116 % of control and 104 % of control; (dose: 37.5 micrograms/kg/injection, schedule: Q01DX009 (ip), vehicle: saline + alcohol) 111 % of control and 96 % of control; (dose: 75.0 micrograms/kg/injection, schedule: Q01DX009 (ip), vehicle: saline + alcohol) 99 % of control and 105 % of control.
Take `NC(=O)Oc1cccc(OC(N)=O)c1`: the T/C is 108 % of control (dose: 12.5 mg/kg/injection, schedule: Q01DX009 (ip), vehicle: distilled water + Tween-80); 107 % of control (dose: 25.0 mg/kg/injection, schedule: Q01DX009 (ip), vehicle: distilled water + Tween-80); 99 % of control (dose: 50.0 mg/kg/injection, schedule: Q01DX009 (ip), vehicle: distilled water + Tween-80); 96 % of control (dose: 100.0 mg/kg/injection, schedule: Q01DX009 (ip), vehicle: distilled water + Tween-80); 113 % of control (dose: 200.0 mg/kg/injection, schedule: Q01DX009 (ip), vehicle: distilled water + Tween-80); 105 % of control (dose: 400.0 mg/kg/injection, schedule: Q01DX009 (ip), vehicle: distilled water + Tween-80).
In the case of `OC1CSC1`, the T/C was 109 % of control (dose: 50.0 mg/kg/injection, schedule: Q01DX009 (ip), vehicle: saline + alcohol); 107 % of control (dose: 100.0 mg/kg/injection, schedule: Q01DX009 (ip), vehicle: saline + alcohol); 113 % of control (dose: 200.0 mg/kg/injection, schedule: Q01DX009 (ip), vehicle: saline + alcohol); 112 % of control (dose: 400.0 mg/kg/injection, schedule: Q01DX009 (ip), vehicle: saline + alcohol).
Regarding `Nc1nc(=S)c2ncn(C3OC(CO)CC3O)c2[nH]1` (centres undefined), the T/C reads like this: (dose: 5.0 mg/kg/injection, schedule: Q01DX009 (ip), vehicle: saline) 110 % of control; (dose: 10.0 mg/kg/injection, schedule: Q01DX009 (ip), vehicle: saline) 122 % of control; (dose: 40.0 mg/kg/injection, schedule: Q01DX009 (ip), vehicle: saline) 94 % of control.
With `COC(=O)c1ccc(O)cc1`, the T/C runs as follows: (dose: 12.5 mg/kg/injection, schedule: Q01DX009 (ip), vehicle: saline with Tween-80) 92 % of control; under setting [6], 103 % of control; under setting [1], 106 % of control; under setting [2], 117 % of control; (dose: 200.0 mg/kg/injection, schedule: Q01DX009 (ip), vehicle: saline with Tween-80) 101 % of control; (dose: 400.0 mg/kg/injection, schedule: Q01DX009 (ip), vehicle: saline with Tween-80) 96 % of control.
Turning to `O=C1c2ccccc2C(=O)N1CC#CCN1C(=O)c2ccccc2C1=O`, the T/C (dose: 75.0 mg/kg/injection, schedule: Q01DX009 (ip), vehicle: saline with Tween-80) was 108 % of control; the T/C (dose: 150.0 mg/kg/injection, schedule: Q01DX009 (ip), vehicle: saline with Tween-80) is 93 % of control; the T/C (dose: 300.0 mg/kg/injection, schedule: Q01DX009 (ip), vehicle: saline with Tween-80) is 90 % of control.
